Measured values published in US4035481A, “Antibiotic A-28086 and process for production thereof” (Eli Lilly and Company, priority 1976, dated 1977).
Values after ≈ are worked out from the molar mass of the structure shown.

Experiments:
rumen flora = assay: In vitro rumen fluid incubation, volatile fatty acid production; parameters: species or system steer; details: 1 ppm in rumen fluid, 16 hours at 38° C
Excerpt: As discussed hereinabove, efficiency of carbohydrate utilization in ruminants is increased by treatments which stimulate the animal's rumen flora to produce propionate compounds rather than acetate or butyrate compounds. The efficiency of feed use can be monitored by observing the production and concentration of propionate compounds in the rumen, using the following methods:
Rumen fluid is obtained from a steer with a surgically-installed fistula opening into the rumen. The steer is maintained on a high-grain ration. A sample of rumen fluid is strained through four layers of cheesecloth, and the filtrate is collected. The particulate matter retained by the cheesecloth is resuspended in enough physiological buffer to return it to the original volume of the rumen fluid, and this suspension is strained again. The buffer used has the following composition:
The two filtrates are combined and allowed to stand until particulate matter separates to the top. The clear layer is separated, diluted with the same buffer (1:1) and then adjusted to between pH 6.8 to 7.0.
The diluted rumen fluid (10 ml) is placed in a 25-ml flask with 40 mg of the above-described feed, an additional 1 mg of soybean protein, and the compound to be tested. Four replicate flasks are used per treatment. Two sets of four control flasks each are also employed. A zero-time control and an incubated 16-hour control are used. All test flasks are incubated for 16 hours at 38° C. […] The samples are allowed to settle, and the supernatants are analyzed by gas chromatography for propionate, acetate, and butyrate compounds.

[1] = Electrometric titration (pKa of titratable group); details: 80% aqueous dimethylformamide
[2] = test system: Saccharomyces pastorianum ATCC2366; assay: Disc-diffusion zone of inhibition, Saccharomyces pastorianum ATCC2366; format: cell-based
Candida tropicalis = assay: Disc-diffusion zone of inhibition, Candida tropicalis; format: cell-based; details: 6 mm pads, 1 mg/ml
Eimeria brunetti = assay: Anticoccidial activity in chicks challenged with Eimeria brunetti (Table IX); format: in vivo, broiler cockerels; details: 0.005 % in feed
Excerpt: ^1 Four replicates, 5 broiler cockerels each

[3] = test system: Propionibacterium acnes 79; assay: Agar-dilution MIC, anaerobic bacteria; format: cell-based; details: Cutibacterium acnes, 24-hour incubation
Procedure: (§1) The minimal inhibitory concentrations (MIC) at which A-28086 factor A inhibits various anaerobic bacteria, determined by standard agar-dilution assay, are summarized in Table VI. Endpoints were read after 24-hour incubation.

[4] = test system: Clostridium septicum bovine; assay: Agar-dilution MIC, anaerobic bacteria; format: cell-based; details: 24-hour incubation
Procedure: as §1

Veillonella alcalescens = assay: Agar-dilution MIC, anaerobic bacteria; format: cell-based; details: Veillonella parvula, 24-hour incubation
Procedure: as §1

Fusobacterium symbiosum = assay: Agar-dilution MIC, anaerobic bacteria; format: cell-based; details: 24-hour incubation
Procedure: as §1

Eubacterium aerofaciens = assay: Agar-dilution MIC, anaerobic bacteria; format: cell-based; details: Collinsella aerofaciens, 24-hour incubation
Procedure: as §1

[5] = test system: Propionibacterium acnes 44; assay: Agar-dilution MIC, anaerobic bacteria; format: cell-based; details: Cutibacterium acnes, 24-hour incubation
Procedure: as §1

Actinomyces bovis = assay: Agar-dilution MIC, anaerobic bacteria; format: cell-based; details: 24-hour incubation
Procedure: as §1

Clostridium inocuum = assay: Agar-dilution MIC, anaerobic bacteria; format: cell-based; details: 24-hour incubation
Procedure: as §1

Peptococcus anaerobius = assay: Agar-dilution MIC, anaerobic bacteria; format: cell-based; details: 24-hour incubation
Procedure: as §1

[6] = test system: Bacteroides fragilis ssp. vulgatis 1211; assay: Agar-dilution MIC, anaerobic bacteria; format: cell-based; details: 24-hour incubation
Procedure: as §1

[7] = test system: Bacteroides fragilis ssp. thetaiotacmicron; assay: Agar-dilution MIC, anaerobic bacteria; format: cell-based; details: 24 h
Procedure: as §1

[8] = test system: Bacteroides fragilis ssp. vulgatis No. 1563; assay: Agar-dilution MIC, anaerobic bacteria; format: cell-based; details: 24-hour incubation
Procedure: as §1

Clostridium ramosum = assay: Agar-dilution MIC, anaerobic bacteria; format: cell-based; details: Thomasclavelia ramosa, 24-hour incubation
Procedure: as §1

[9] = test system: Fusobacterium necrophorum; assay: Agar-dilution MIC, anaerobic bacteria; format: cell-based; details: 24-hour incubation
Procedure: as §1

[10] = test system: Peptostreptococcus intermedius; assay: Agar-dilution MIC, anaerobic bacteria; format: cell-based; details: 24-hour incubation
Procedure: as §1

Clostridium septicum = assay: Agar-dilution MIC, anaerobic bacteria; format: cell-based; details: 24-hour incubation
Procedure: as §1

[11] = test system: Bacteroides fragilis ssp. fragilis; assay: Agar-dilution MIC, anaerobic bacteria; format: cell-based; details: 24-hour incubation
Procedure: as §1

sheep = assay: Feed-utilization efficiency in sheep; format: in vivo; details: 56 days
Fusarium moniliforme = assay: Disc-diffusion zone of inhibition, Fusarium moniliforme; format: cell-based; details: Fusarium verticillioides; 6 mm pads, 1 mg/ml
M. hyosynoviae = assay: In vitro broth-dilution MIC, Mycoplasma; format: cell-based, Mycoplasma hyosynoviae
Excerpt: (§2) Activity against Mycoplasma is another useful aspect of the antimicrobial activity of the A-28086 compounds. Mycoplasma species, also known as pleuropneumonia-like (PPLO) organisms, are pathogenic to man and various animals. Agents active against PPLO organisms are especially needed by the poultry industry. The minimal inhibitory concentrations (MIC) of antibiotic A-28086 factor A against various Mycoplasma species, as determined by in vitro broth-dilution studies, are summarized in Table VII below: […]

[12] = test system: Bacillus subtilis ATCC6633; assay: Disc-diffusion zone of inhibition, Bacillus subtilis ATCC6633; format: cell-based; details: 6 mm pads, 1 mg/ml
[13] = Acute toxicity in mice, intraperitoneal; details: mouse, in vivo, ip
Sarcina lutea ATCC9341 = assay: Disc-diffusion zone of inhibition, Sarcina lutea ATCC9341; format: cell-based; details: Micrococcus luteus, 6 mm pads, 1 mg/ml
[14] = test system: Mycobacterium avium ATCC7992; assay: Disc-diffusion zone of inhibition, Mycobacterium avium ATCC7992; format: cell-based; details: 6 mm pads, 1 mg/ml
[15] = Solubility in organic solvents and water; format: physicochemical
M. gallisepticum = assay: In vitro broth-dilution MIC, Mycoplasma; format: cell-based; details: Mycoplasmoides gallisepticum
Excerpt: as §2

M. hyorhinis = assay: In vitro broth-dilution MIC, Mycoplasma; format: cell-based; details: Mesomycoplasma hyorhinis
Excerpt: as §2

M. synoviae = assay: In vitro broth-dilution MIC, Mycoplasma; format: cell-based; details: Mycoplasmopsis synoviae
Excerpt: as §2

M. hypopneumoniae = assay: In vitro broth-dilution MIC, Mycoplasma; format: cell-based, Mycoplasma hypopneumoniae
Excerpt: as §2

Staphylococcus aureus = assay: Disc-diffusion zone of inhibition, Staphylococcus aureus; format: cell-based; details: 6 mm pads, 1 mg/ml
Clostridium perfringens = assay: microbe, parasite or virus in culture; format: cell-based; details: 24 h
[16] = test system: Transmissible Gastro-enteritis virus; format: cell-based; details: tissue-culture test
[17] = Microbiological activity of A-28086-I

SMILES: CCCC(=O)OC1C=CC2(OC(C(CC)C(=O)C(C)C(O)C(C)C3OC(C(CC)C(=O)O)C(C)CC3C)C(C)CC2C)OC12CCC(C)(C1CCC(O)(CC)C(C)O1)O2 (centres unmarked)
- Ratio of Treated to Control, Molar % acetate (rumen flora): 0.91
- Ratio of Treated to Control, Molar % butyrate (rumen flora): 0.81
- Ratio of Treated to Control, Total VFA mM/1 (rumen flora): 1.19

SMILES: CCCCCC(=O)OC1C=CC2(OC(C(CC)C(=O)C(C)C(O)C(C)C3OC(C(CC)C(=O)O)C(C)CC3C)C(C)CC2C)OC12CCC(C)(C1CCC(O)(CC)C(C)O1)O2 (centres unmarked)
- Ratio of Treated to Control, Molar % acetate (rumen flora): 0.86
- Ratio of Treated to Control, Molar % butyrate (rumen flora): 0.97
- Ratio of Treated to Control, Total VFA mM/1 (rumen flora): 0.99

SMILES: CCC(=O)OC1C=CC2(OC(C(CC)C(=O)C(C)C(O)C(C)C3OC(C(CC)C(=O)O)C(C)CC3C)C(C)CC2C)OC12CCC(C)(C1CCC(O)(CC)C(C)O1)O2 (centres unmarked)
- Ratio of Treated to Control, Molar % acetate (rumen flora): 0.90
- Ratio of Treated to Control, Molar % butyrate (rumen flora): 0.68
- Ratio of Treated to Control, Total VFA mM/1 (rumen flora): 1.25

SMILES: CCCCC(=O)OC1C=CC2(OC(C(CC)C(=O)C(C)C(O)C(C)C3OC(C(CC)C(=O)O)C(C)CC3C)C(C)CC2C)OC12CCC(C)(C1CCC(O)(CC)C(C)O1)O2 (centres unmarked)
- Ratio of Treated to Control, Molar % acetate (rumen flora): 0.92
- Ratio of Treated to Control, Molar % butyrate (rumen flora): 0.79
- Ratio of Treated to Control, Total VFA mM/1 (rumen flora): 1.18

SMILES: CCC(C(=O)O)C1OC(C(C)C(O)C(C)C(=O)C(CC)C2OC3(C=CC(OC(C)=O)C4(CCC(C)(C5CCC(O)(CC)C(C)O5)O4)O3)C(C)CC2C)C(C)CC1C (centres unmarked) [A-28086 factor A acetyl ester derivative]
- pKa [1]: 8.5
- Ratio of Treated to Control, Molar % acetate (rumen flora): 0.79
- Ratio of Treated to Control, Molar % butyrate (rumen flora): 0.76
- Ratio of Treated to Control, Total VFA mM/1 (rumen flora): 1.04

SMILES: CCC(C(=O)O)C1OC(C(C)C(O)C(C)C(=O)C(CC)C2OC3(C=CC(O)C4(CCC(C)(C5CCC(O)(CC)C(C)O5)O4)O3)C(C)CC2C)C(C)CC1C (centres unmarked) [A-28086 factor A]
- zone of inhibition at 1000 µg/mL [2]: 17 mm
- pKa [1]: 7.9
- zone of inhibition at 1000 µg/mL (Candida tropicalis): 14 mm
- Average Lesion Score (Eimeria brunetti): 1.2
- Oocysts Passed Percent Reduction (Eimeria brunetti): 58%
- Percent Mortality (Eimeria brunetti): 0%
- Percent Weight Gain (Eimeria brunetti): 88%
- MIC [3]: 2 µg/mL (≈ 2.61 µM)
- MIC [4]: < 0.5 µg/mL
- MIC (Veillonella alcalescens): 16 µg/mL (≈ 20.9 µM)
- MIC (Fusobacterium symbiosum): < 0.5 µg/mL
- MIC (Eubacterium aerofaciens): 1 µg/mL (≈ 1.31 µM)
- MIC [5]: 16 µg/mL (≈ 20.9 µM)
- MIC (Actinomyces bovis): < 0.5 µg/mL
- MIC (Clostridium inocuum): < 0.5 µg/mL
- MIC (Peptococcus anaerobius): < 0.5 µg/mL
- MIC [6]: 2 µg/mL (≈ 2.61 µM)
- MIC [7]: 8 µg/mL (≈ 10.5 µM)
- MIC [8]: 8 µg/mL (≈ 10.5 µM)
- MIC (Clostridium ramosum): 4 µg/mL (≈ 5.23 µM)
- MIC [9]: 8 µg/mL (≈ 10.5 µM)
- MIC [10]: 16 µg/mL (≈ 20.9 µM)
- MIC (Clostridium septicum): < 0.5 µg/mL
- MIC [11]: 8 µg/mL (≈ 10.5 µM)
- Percent Improvement (sheep; 9 g per ton of feed): 12%
- Percent Improvement (sheep; 18 g per ton of feed): 1%
- zone of inhibition at 1000 µg/mL (Fusarium moniliforme): 12 mm
- MIC (M. hyosynoviae): 6.25 µg/mL (≈ 8.17 µM)
- zone of inhibition at 1000 µg/mL [12]: 28 mm
- Ratio of Treated to Control, Molar % acetate (rumen flora): 0.94
- Ratio of Treated to Control, Molar % butyrate (rumen flora): 0.87
- Ratio of Treated to Control, Total VFA mM/1 (rumen flora): 1.26
- LD50 [13]: 7.15 mg/kg
- zone of inhibition at 1000 µg/mL (Sarcina lutea ATCC9341): 26 mm
- zone of inhibition at 1000 µg/mL [14]: 12 mm
- solubility in organic solvents ([15]; methanol, ethanol, dimethylformamide, dimethyl sulfoxide, ethyl acetate, chloroform, acetone, benzene): soluble
- solubility in nonpolar organic solvents ([15]; such as hexane): only slightly soluble
- solubility in water ([15]; water): insoluble
- MIC (M. gallisepticum): 12.5 µg/mL (≈ 16.3 µM)
- MIC (M. hyorhinis): 12.5 µg/mL (≈ 16.3 µM)
- MIC (M. synoviae): 6.25 µg/mL (≈ 8.17 µM)
- MIC (M. hypopneumoniae): 6.25 µg/mL (≈ 8.17 µM)
- zone of inhibition at 1000 µg/mL (Staphylococcus aureus): 19 mm
- MIC (Clostridium perfringens): < 0.5 µg/mL
- antiviral activity [16]: active

SMILES: CCC(C(=O)OC)C1OC(C(C)C(O)C(C)C(=O)C(CC)C2OC3(C=CC(O)C4(CCC(C)(C5CCC(O)(CC)C(C)O5)O4)O3)C(C)CC2C)C(C)CC1C (centres unmarked) [A-28086-I]
- microbiological activity [17]: not microbiologically active
